Assay [1] addresses Monoamine transporters; serotonin & dopamine (Rattus norvegicus) (UniProt P31652+P23977). Nature of the assay: Selectivity for serotonin transporter compared to dopamine transporter. The class given is protein assay.
Assay [2] deals with Sodium-dependent serotonin transporter (Rattus norvegicus, UniProt P31652). Nature of the assay: In vitro binding affinity at serotonin transporter in rat striatum by [3H]- citalopram displacement. The assay is classed as tissue-based.
Assay [3] deals with Norepinephrine transporter (Rattus norvegicus, UniProt Q9WTR4). Nature of the assay: Affinity at norepinephrine transporter (NET) in rat striatum, using [3H]- nisoxatine as radioligand. The assay is classed as tissue-based.
In assay [4] the target is Sodium-dependent dopamine transporter (Rattus norvegicus) (UniProt P23977). Nature of the assay: Ratio of ([3H]-DA uptake) / [3H]WIN-35428 binding was determined in […].
The species named for another assay is Rattus norvegicus. As to the kind of experiment: Inhibition of dopamine reuptake ([3H]DA uptake) in […]. The assay is classed as functional.
Assay [5] addresses Sodium-dependent dopamine transporter (Rattus norvegicus, UniProt P23977). Nature of the assay: In vitro binding affinity at dopamine transporter in rat striatum by [3H]WIN-35428 displacement. The class given is tissue-based.

Our source for the Ratio and IC50 values is ChEMBL document CHEMBL1134376, “Structure-activity relationship studies of 4-[2-(diphenylmethoxy)ethyl]-1-benzylpiperidine derivatives and their N-analogues: evaluation of O-and N-analogues and their binding to monoamine transporters” (J Med Chem, 2001).

Chain of Sodium-dependent serotonin transporter (P31652 whole entry): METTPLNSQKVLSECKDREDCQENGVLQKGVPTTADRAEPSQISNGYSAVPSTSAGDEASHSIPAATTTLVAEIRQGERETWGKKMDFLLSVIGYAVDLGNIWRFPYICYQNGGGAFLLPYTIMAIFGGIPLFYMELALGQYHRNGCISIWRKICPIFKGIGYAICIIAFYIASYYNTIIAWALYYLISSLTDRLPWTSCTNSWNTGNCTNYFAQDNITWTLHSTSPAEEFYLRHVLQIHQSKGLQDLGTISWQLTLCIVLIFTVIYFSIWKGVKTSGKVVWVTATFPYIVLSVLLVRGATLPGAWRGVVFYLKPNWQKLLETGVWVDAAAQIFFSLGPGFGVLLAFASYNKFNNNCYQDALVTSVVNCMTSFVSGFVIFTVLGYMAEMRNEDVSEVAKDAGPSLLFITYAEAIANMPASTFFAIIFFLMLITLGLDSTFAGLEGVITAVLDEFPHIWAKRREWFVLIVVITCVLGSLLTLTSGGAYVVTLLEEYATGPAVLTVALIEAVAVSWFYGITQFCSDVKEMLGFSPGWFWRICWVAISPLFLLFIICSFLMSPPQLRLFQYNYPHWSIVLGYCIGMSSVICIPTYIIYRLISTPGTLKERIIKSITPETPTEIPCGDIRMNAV
Chain of Norepinephrine transporter (Q9WTR4 whole entry): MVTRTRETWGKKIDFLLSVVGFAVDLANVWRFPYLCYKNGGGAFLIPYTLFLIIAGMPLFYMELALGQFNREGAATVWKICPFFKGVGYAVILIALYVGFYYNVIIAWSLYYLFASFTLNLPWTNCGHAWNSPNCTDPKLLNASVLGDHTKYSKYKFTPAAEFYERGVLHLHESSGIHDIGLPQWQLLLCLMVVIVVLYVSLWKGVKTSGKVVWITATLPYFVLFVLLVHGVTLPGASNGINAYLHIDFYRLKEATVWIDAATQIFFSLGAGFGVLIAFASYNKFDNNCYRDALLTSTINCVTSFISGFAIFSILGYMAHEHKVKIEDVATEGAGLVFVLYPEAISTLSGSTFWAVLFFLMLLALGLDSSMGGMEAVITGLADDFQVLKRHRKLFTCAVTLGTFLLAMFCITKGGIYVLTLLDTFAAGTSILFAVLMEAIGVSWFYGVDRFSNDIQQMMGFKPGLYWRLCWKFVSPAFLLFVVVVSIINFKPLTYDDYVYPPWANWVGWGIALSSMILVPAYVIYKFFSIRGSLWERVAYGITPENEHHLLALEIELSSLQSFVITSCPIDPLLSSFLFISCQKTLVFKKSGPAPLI
Chain of Sodium-dependent dopamine transporter (Rattus norvegicus) (P23977 whole entry, looked up): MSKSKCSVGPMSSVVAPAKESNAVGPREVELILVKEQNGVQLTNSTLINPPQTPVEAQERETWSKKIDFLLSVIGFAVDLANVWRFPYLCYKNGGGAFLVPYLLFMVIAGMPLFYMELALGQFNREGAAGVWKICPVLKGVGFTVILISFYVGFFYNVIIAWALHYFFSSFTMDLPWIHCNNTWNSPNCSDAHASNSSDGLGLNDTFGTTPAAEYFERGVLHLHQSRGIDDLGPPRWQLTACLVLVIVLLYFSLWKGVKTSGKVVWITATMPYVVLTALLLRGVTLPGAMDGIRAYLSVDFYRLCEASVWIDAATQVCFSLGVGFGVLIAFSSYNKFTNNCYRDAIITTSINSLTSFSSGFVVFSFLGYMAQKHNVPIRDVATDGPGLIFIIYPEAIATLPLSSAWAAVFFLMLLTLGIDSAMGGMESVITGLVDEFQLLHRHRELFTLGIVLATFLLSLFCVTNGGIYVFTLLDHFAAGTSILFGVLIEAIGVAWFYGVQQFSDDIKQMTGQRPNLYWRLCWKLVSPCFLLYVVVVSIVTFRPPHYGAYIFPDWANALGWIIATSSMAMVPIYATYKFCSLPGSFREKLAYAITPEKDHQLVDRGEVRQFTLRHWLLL
Chain of Monoamine transporters; serotonin & dopamine (Rattus norvegicus) (P23977 whole entry, looked up): as above
Chain of Monoamine transporters; serotonin & dopamine (Rattus norvegicus) (P31652 whole entry, looked up): as the sequence (P31652 whole entry) above
Chain of Sodium-dependent dopamine transporter (P23977 whole entry): as the sequence (P23977 whole entry, looked up) above

As for `CC(NCCC1CCN(Cc2ccc(F)cc2)CC1)c1ccccc1` (centres undefined), the Ratio in assay [1] turned out to be 3.2.
With `O=C(Cc1ccccc1)N1CCC(CCOC(c2ccccc2)c2ccccc2)CC1`, the IC50 in assay [2] came out at 13.2 µM. For the same compound, the Ratio in assay [1] worked out at 6.1.
Consider `Fc1ccc(CN2CCC(CNCC(c3ccccc3)c3ccccc3)CC2)cc1`, for which the IC50 in assay [3] came to 1.1 µM; in the assay filed under Rattus norvegicus, 0.0496 µM. For the same compound, the Ratio in assay [4] turned out to be 2.5; in assay [1] it was 7.
On the same counts, the results for `Fc1ccc(CN2CCC(CCNC(c3ccccc3)c3ccccc3)CC2)cc1` are 0.945 µM, 0.012 µM, 1.33 and 62.
In the case of `FC(F)(F)c1ccc(CN2CCC(CCOC(c3ccccc3)c3ccccc3)CC2)cc1`, in assay [1], the Ratio came out at 71.
For the compound `c1ccc(CN2CCC(CCNC(c3ccccc3)c3ccccc3)CC2)cc1`, the concentration for half-maximal inhibition (IC50) in assay [3] came to 2.62 µM; in the assay listed under Rattus norvegicus it was 0.0206 µM.
Turning to `CN(CC1CCN(Cc2ccc(F)cc2)CC1)CC(c1ccccc1)c1ccccc1`, the Ratio in assay [1] worked out at 27.
Take `N#Cc1ccc(CN2CCC(CCOC(c3ccccc3)c3ccccc3)CC2)cc1`: the IC50 was determined as 0.342 µM in assay [3] and 0.00458 µM in the assay filed under Rattus norvegicus. Moreover, the Ratio in assay [1] came out at 615.
Take `CC(OCCC1CCN(Cc2ccc(F)cc2)CC1)c1ccccc1` (centres undefined): the 50% inhibitory concentration (IC50) in assay [2] was 5.86 µM; in assay [5], 0.751 µM. In assay [1], the Ratio was 7.8.
In assay [3], `Fc1ccc(CN2CCC(CCOC(c3ccccc3)c3ccccc3)CC2)cc1F` showed an IC50 of 0.921 µM. Besides, the Ratio in assay [1] was 122.
As for `Fc1ccc(CN2CCC(CNOC(c3ccccc3)c3ccccc3)CC2)cc1`, the IC50 worked out at 0.691 µM in assay [3] and 0.0166 µM in the assay filed under Rattus norvegicus. In addition, the Ratio was 0.48 in assay [4] and 19 in assay [1].
As to `CN(CCC1CCN(Cc2ccc(F)cc2)CC1)C(c1ccccc1)c1ccccc1`, the IC50 in assay [2] worked out at 1.66 µM; in assay [5], 0.213 µM. Besides, the Ratio in assay [1] was 7.8.
For the compound `Fc1cccc(CN2CCC(CCOC(c3ccccc3)c3ccccc3)CC2)c1`, the Ratio in assay [1] is 49.
For the compound `Fc1ccc(CN2CCC(CCOC(c3ccccc3)c3ccccc3)CC2)cc1`, in the assay listed under Rattus norvegicus, the IC50 came out at 0.00248 µM. Also, the Ratio in assay [1] was 113.
`CS(=O)(=O)Nc1ccc(CN2CCC(CCOC(c3ccccc3)c3ccccc3)CC2)cc1`: the Ratio was 0.36 in assay [4] and 22 in assay [1]. This compound also returned an IC50 in the assay listed under Rattus norvegicus of 0.00973 µM.
In the case of `Fc1ccc(C(NCC2CCN(CCc3ccccc3)CC2)c2ccc(F)cc2)cc1`, the Ratio in assay [1] is 17.
As to `Fc1ccc(CN2CCC(CCNC(c3ccccc3)c3ccccc3)CC2)cc1F`, the IC50 in assay [3] was 1.03 µM; in the assay filed under Rattus norvegicus, 0.0107 µM.

The IC50 is the concentration at which inhibition is half-maximal. Read a low IC50 as greater potency.
